# Assays:
# rat's hepatocytes = assay: Inhibition of GPT elution from cultivated liver cells treated with hepatocyte-damaging substances; format: cell-based
# Description: The effect on relieving the culture damage induced by adding hepatocyte-damaging substances and SK-818 to hepatocyte culture systems was examined by measuring the activity of glutamic-pyruvic transaminase (GPT) eluates obtained by cellular disorders. How much the elution of GPT was inhibited was used as an index to the hepatoxicity-relieving effect.
# The following four substances were used as the hepatocyte-damaging (hepatoxic) substances. • (a) Galactosamine - "J. Natur. Prod.", 46, 841, 1983. • (b) Calcium ionophore - "Pharmacognosy", 39, 218, 1985. • (c) Cumene hydroperoxide - "Planta Med.", 51, 50, 1985. • (d) 1-Naphthylisothiocyanate.
# The extraction and culture of a single layer of rat's hepatocytes were carried out by the procedures described by Nakamura et al in "Protein, Nucleic Acid and Oxygen", Extra Number No. 24, pp. 55-74, 1981.
# Single layers of rats' hepatocytes were cultured for certain periods of time:- 0 hour for a galactosamine group, 20.5 hours for calcium ionophore and cumene hydroperoxide groups, and 14.5 hours for a 1-naph isocyanate group. Afterwards, the hepatocyte-damaging substances were added to the culture media at the respective desired concentrations:- 0.35 mM for (a); 10 »m for (b), 0.5 mM for (c) and 188 »m for (d)), which were then cultured for the respective given periods of time:- 38 hours for the group (a), 1 hour for (b), 1 hour for (c) and 12 hours for (d).
# SK-818 was dissolved in bovine embryo serum, and the serum solution was then added to each medium at the respective stages of culture by the following three methods; • (a) it was added to the pre-culture medium prior to the addition of the hepatocyte-damaging substance (called the pre-addition); • (b) it was added to the culture medium simultaneously with the addition of the hepatocyte-damaging substance (called the simultaneous addition); and • (c) it was added to the pre-culture and culture media (called the total addition).
# The activity of the GPT eluates produced by cytotoxicity in the media was measured by a GPT measuring kit. Then, GPT reductions in % were found by the following equation: [formula] wherein A is the activity in Karmen units of GPT in a culture medium to which no hepatocyte-damaging substance is added, B is the activity in Karmen units of GPT in a culture medium to which the hepatocyte-damaging substance is added; and C is the activity in Karmen units of GPT in a culture medium to which the hepatocyte-damaging substance is added together with 3-oxygermylpropionic acid.
# Type B chronic hepatitis = assay: Clinical test for Type B chronic hepatitis against placebo; format: in vivo, patients
# Protocol: The efficacy of SK-818 against Type B chronic hepatitis was examined, using a placebo as control.
# The subjects were patients who had been diagnosed by biopsy as chronic hepatitis before at most one year in principle, were positive to HBe antigens and had Type B chronic hepatitis in need of treatment.
# • (i) The drug under test was a capsule containing 10 mg of SK-818. • (ii) The control consisted only of lactose (a placebo).
# The subjects followed the standard prescription of three capsules a day and one capsule each meal over 16 weeks in principle.
# The general examination of the functioning of the livers and blood and the measurement of HBe antigens and antibodies were all carried out by the Virus Hepatitis Research Foundation.
# [1] = SK-818 against Placebo, time points with significance
# [2] = determined by physicians, Total 95
substance,measurement,setting,value
3-oxygermylpropionic acid [SK-818],GPT reductions,"rat's hepatocytes; 1-naphthylisothiocynate 188 »m, simultaneous addition",79%
same,GPT reductions,"rat's hepatocytes; 1-naphthylisothiocynate 188 »m, total addition",67%
same,GPT reductions,"rat's hepatocytes; calcium ionophore 10 »m, simultaneous addition",27%
same,GPT reductions,"rat's hepatocytes; calcium ionophore 10 »m, total addition",36%
same,GPT reductions,"rat's hepatocytes; cumene hydroperoxide 0.5 mM, simultaneous addition",63%
same,GPT reductions,"rat's hepatocytes; cumene hydroperoxide 0.5 mM, total addition",42%
same,GPT reductions,"rat's hepatocytes; galactosamine 0.35 mM, simultaneous addition",29%
same,GPT reduction,"rat's hepatocytes; only pre-addition, before the hepatocyte-damaging substance",No GPT reduction
same,GOT,Type B chronic hepatitis; 4W,↓ *
same,GPT,Type B chronic hepatitis; 4W,↓ *
same,HBe antibodies (RIA%),Type B chronic hepatitis; 4W,↑ *
same,HBe antigens (EIA) log,Type B chronic hepatitis; 4W,↓***
same,LDH (mu/ml),Type B chronic hepatitis; 4W,↓ +
same,Total Bilirubin (mg/dl),Type B chronic hepatitis; 4W,↓ *
same,AIP (KA),Type B chronic hepatitis; 8W,↓ +
same,Cholinesterase (ΔPH),Type B chronic hepatitis; 8W,↑ *
same,GOT,Type B chronic hepatitis; 8W,↓ +
same,GPT,Type B chronic hepatitis; 8W,↓**
same,HBe antibodies (RIA%),Type B chronic hepatitis; 8W,↑ *
same,HBe antigens (EIA) log,Type B chronic hepatitis; 8W,↓ **
same,LDH (mu/ml),Type B chronic hepatitis; 8W,↓ +
same,Total Cholesterol (mg/dl),Type B chronic hepatitis; 8W,↑ *
same,AIP (KA),Type B chronic hepatitis; 12W,↓ +
same,Cholinesterase (ΔPH),Type B chronic hepatitis; 12W,↑ *
same,GOT,Type B chronic hepatitis; 12W,↓***
same,GPT,Type B chronic hepatitis; 12W,↓***
same,HBe antibodies (RIA%),Type B chronic hepatitis; 12W,↑ **
same,HBe antigens (EIA) log,Type B chronic hepatitis; 12W,↓***
same,LDH (mu/ml),Type B chronic hepatitis; 12W,↓ *
same,Serum Albumin (g/dl),Type B chronic hepatitis; 12W,↑ *
same,TTT,Type B chronic hepatitis; 12W,↓**
same,Total Cholesterol (mg/dl),Type B chronic hepatitis; 12W,↑ *
same,ZTT,Type B chronic hepatitis; 12W,↓**
same,γ-GTP (mu/ml),Type B chronic hepatitis; 12W,↓**
same,γ-Globulin (g/dl),Type B chronic hepatitis; 12W,↓**
same,GOT,Type B chronic hepatitis; 16W,↓***
same,GPT,Type B chronic hepatitis; 16W,↓***
same,HBe antibodies (RIA%),Type B chronic hepatitis; 16W,↑ *
same,HBe antigens (EIA) log,Type B chronic hepatitis; 16W,↓***
same,Serum Albumin (g/dl),Type B chronic hepatitis; 16W,↑ +
same,TTT,Type B chronic hepatitis; 16W,↓***
same,Total Cholesterol (mg/dl),Type B chronic hepatitis; 16W,↑ *
same,ZTT,Type B chronic hepatitis; 16W,↓**
same,γ-GTP (mu/ml),Type B chronic hepatitis; 16W,↓ **
same,γ-Globulin (g/dl),Type B chronic hepatitis; 16W,↓***
same,Cholinesterase (ΔPH),Type B chronic hepatitis; Af4W (after 4 weeks),↑ *
same,GOT,Type B chronic hepatitis; Af4W (after 4 weeks),↓ **
same,GPT,Type B chronic hepatitis; Af4W (after 4 weeks),↓ **
same,HBe antibodies (RIA%),Type B chronic hepatitis; Af4W (after 4 weeks),↑ *
same,HBe antigens (EIA) log,Type B chronic hepatitis; Af4W (after 4 weeks),↓***
same,TTT,Type B chronic hepatitis; Af4W (after 4 weeks),↓***
same,ZTT,Type B chronic hepatitis; Af4W (after 4 weeks),↓**
same,γ-GTP (mu/ml),Type B chronic hepatitis; Af4W (after 4 weeks),↓ **
same,γ-Globulin (g/dl),Type B chronic hepatitis; Af4W (after 4 weeks),↓***
same,Cholinesterase (ΔPH),Type B chronic hepatitis; Af8W (after 8 weeks),↑**
same,GOT,Type B chronic hepatitis; Af8W (after 8 weeks),↓ **
same,GPT,Type B chronic hepatitis; Af8W (after 8 weeks),↓ **
same,HBe antibodies (RIA%),Type B chronic hepatitis; Af8W (after 8 weeks),↑ **
same,HBe antigens (EIA) log,Type B chronic hepatitis; Af8W (after 8 weeks),↓***
same,TTT,Type B chronic hepatitis; Af8W (after 8 weeks),↓ *
same,Total Cholesterol (mg/dl),Type B chronic hepatitis; Af8W (after 8 weeks),↑*
same,ZTT,Type B chronic hepatitis; Af8W (after 8 weeks),↓ *
same,γ-GTP (mu/ml),Type B chronic hepatitis; Af8W (after 8 weeks),↓ *
same,γ-Globulin (g/dl),Type B chronic hepatitis; Af8W (after 8 weeks),↓ *
same,"Cholinesterase (ΔPH), Differences between groups",Type B chronic hepatitis; [1],4w* 12W** Af4W* 8w** 16w* Af8w+
same,"GPT, Differences between groups",Type B chronic hepatitis; [1],8w* 12w** 16W* Af4w*
same,"HBe antibodies (RIA%), Differences between groups",Type B chronic hepatitis; [1],4W* 12W* 16W* Af8w+
same,"HBe antigens (EIA) log, Differences between groups",Type B chronic hepatitis; [1],4W** 12W* 16W* Af4w*
same,"TTT, Differences between groups",Type B chronic hepatitis; [1],Af4w+
same,"Total Cholesterol (mg/dl), Differences between groups",Type B chronic hepatitis; [1],8W* 16W** 12W** Af8w*
same,"γ-Globulin (g/dl), Differences between groups",Type B chronic hepatitis; [1],12W+ Af4w* 16w+ Af8w+
same,"Rate of Amelioration, Slightly ameliorated or more","Type B chronic hepatitis; determined by physicians, P=0.0011 against placebo",57.9%
same,"Rate of Amelioration, Ameliorated to some or higher extent","Type B chronic hepatitis; determined by physicians, P=0.0114 against placebo",36.8
same,Degree of Amelioration: Ameliorated to some extent (number of cases),Type B chronic hepatitis; [2],23
same,Degree of Amelioration: Less aggravated (number of cases),Type B chronic hepatitis; [2],5
same,Degree of Amelioration: Nochange (number of cases),Type B chronic hepatitis; [2],31
same,Degree of Amelioration: Slightly ameliorated (number of cases),Type B chronic hepatitis; [2],20
same,Degree of Amelioration: aggravated (number of cases),Type B chronic hepatitis; [2],4
same,Degree of Amelioration: seriously aggravated (number of cases),Type B chronic hepatitis; [2],0
same,Degree of Amelioration: Remarkably ameliorated (number of cases),"Type B chronic hepatitis; determined by physicians, Total 95, 10 mg capsule three a day over 16 weeks",12
